In patent US3988461A, “Pharmaceutical composition for the treatment of Parkinson's disease” (priority 1974, dated 1976):
Where a name gives a salt, the structure may show the parent alone.

Legend:
hexobarbital narcosis = assay: Examination of Sedative Effects, Hexobarbital Narcosis Test; conditions: for Positive animals/treated animals: positive = sleep higher by at least 150% than control
Description: The side effects of the individual active agents as well as those of the compositions were examined as follows:
Examination of Sedative Effects on Mice, According to the Hexobarbital Narcosis Test
The compounds to be tested were suspended in water containing Tween 80, and 20 ml./kg. dosages of the obtained suspensions were administered orally to the test animals.

[1] = test system: Oxotremorine-induced tremor; assay: Inhibition of Oxotremorine-induced Tremor; type: in vivo, mice; conditions: for ED50 found: 30 min; for ED50 calculated: expected from isobole
Description: The tests were performed on mice of both sexes, each weighing 20 to 30 g. The groups consisted of 20 animals each. The test animals were treated orally with varying amounts of Cyproheptadine hydrochloride or L-Dopa, respectively.
30 minutes after the administration of L-Dopa, varying amounts of Cyproheptadine hydrochloride were introduced, and after further 30 minutes the animals were treated with a standard dosage of Oxotremorine.
In a further series of tests the animals were treated with 1 mg./kg. of Cyproheptadine hydrochloride. 30 minutes after the administration of Cyproheptadine hydrochloride, L-Dopa was introduced in varying amounts, and after a further period of 30 minutes the animals were treated with a standard dosage of Oxotremorine.
The expected ED50 values were determined by constructing an isobole, and the expected values were compared to the observed ones.

[2] = test system: Perphenazine-induced catalepsy; assay: Antagonism of Perphenazine-induced Catalepsy; type: in vivo, white rats
Description: The synergistic increase in the antiparkinson effect was investigated by studying the inhibition of Oxotremorine-induced tremor and the antagonism of Perphenazine-induced catalepsy.
The tests were performed on white rats of both sexes, each weighing 150 to 200 g. The animals were treated orally with varying amounts of Cyproheptadine hydrochloride or L-Dopa, respectively, and 30 minutes after the introduction of the active agents the animals were treated with a standard dosage of Perphenazine [2-chloro-10-(3-/4-(2-hydroxy-ethyl)-1-piperazinyl/-propyl)-phenothiazine]. The percentage of catalepsy inhibition was examined as a function of the time.
The interaction of the active agents was studied on white rats, according to the method described above. Cyproheptadine hydrochloride was administered in oral dosages of 2 or 4 mg./kg., respectively. 30 minutes after the introduction of Cyproheptadine hydrochloride the animals were treated with varying amounts of L-Dopa, and after an additional period of 30 minutes the animals were treated with a standard dosage of Perphenazine.

motility = assay: Examination of Locomotive Stimulating Effect on Motility Test
Description: b. Examination of Locomotive Stimulating Effect on Motility Test
The tests were performed on white mice. An intraperitoneal dosage of 500 mg./kg. of L-Dopa was administered 30 minutes after the pre-treatment with Cyproheptadine hydrochloride.

mice = assay: Toxicity Tests (oral, individual and joint toxicity)
Description: (§1) The toxicities of the individual components were determined separately on mice. The active agents were suspended in water containing Tween 80, and the suspension was administered orally to the animals in a dosage of 20 ml./kg. The animals were kept under observation for 72 hours. The poisoned animals perished within 48 hours.
(§2) The joint toxicity of the individual active agents was determined as follows:
(§3) a. The animals were treated with 1 g/kg. of L-Dopa. 1 hour after the administration of L-Dopa, the animals were treated with varying amounts of Cyproheptadine hydrochloride.
(§4) b. The animals were treated with 2 g./kg. of L-Dopa, and varying amounts of Cyproheptadine hydrochloride were administered subsequently.
(§5) c. The animals were treated with 3 g./kg. of L-Dopa, and subsequently Cyproheptadine hydrochloride was administered in varying amounts.
(§6) In order to evaluate the changes in toxicity, the expected toxicities of the compositions listed below were determined by constructing an isobole, and the calculated data were compared to the observed ones.

[3] = as above; conditions: mouse, in vivo, po; for mortality at 72 h: Perishment, %
Description: as §1, §2, §3, §4, §5, §6

[4] = Cyproheptadine hydrochloride after 200 mg./kg. L-Dopa
[5] = Cyproheptadine hydrochloride 10 mg./kg. oral
[6] = Cyproheptadine hydrochloride 20 mg./kg. oral
[7] = Table 5, Cyproheptadine HCl 2 mg./kg. alone
[8] = Table 5, Cyproheptadine HCl 4 mg./kg. alone
[9] = Cyproheptadine HCl 2.5 mg./kg. p.o. + physiological saline i.p.
[10] = L-Dopa after 1 mg./kg. Cyproheptadine HCl
[11] = physiological saline p.o. + L-Dopa 500 mg./kg. i.p.

CN1CCC(=C2c3ccccc3C=Cc3ccccc32)CC1 [Cyproheptadine HCl]
% positive animals (hexobarbital narcosis; 2.5 mg./kg. oral): 33%
Positive animals/treated animals (hexobarbital narcosis; 2.5 mg./kg. oral): 6/18
% positive animals (hexobarbital narcosis; 5.0 mg./kg. oral): 66%
Positive animals/treated animals (hexobarbital narcosis; 5.0 mg./kg. oral): 4/6
% positive animals (hexobarbital narcosis; 10.0 mg./kg. oral): 83%
Positive animals/treated animals (hexobarbital narcosis; 10.0 mg./kg. oral): 5/6
Inhibition, % ([1]; 0.2 mg./kg. after 200 mg./kg. L-Dopa pre-treatment): 0%
Inhibition, % ([1]; 0.4 mg./kg. after 200 mg./kg. L-Dopa pre-treatment): 20%
Inhibition, % ([1]; 0.8 mg./kg. after 200 mg./kg. L-Dopa pre-treatment): 50%
Inhibition, % ([1]; 1.6 mg./kg. after 200 mg./kg. L-Dopa pre-treatment): 90%
Difference (percentage deviation of ED50 calculated vs. found) [1, 4]: +107%
ED50 found [1, 4]: 0.7 mg/kg
ED50 ([1]; Mus musculus, 0.5 h, Cyproheptadine hydrochloride alone, oral, 30 min before Oxotremorine): 3 mg/kg
ED50 calculated [1, 4]: 1.45 mg/kg
Percentage inhibition after 0.5 hours [2, 5]: 89%
Percentage inhibition after 1 hours [2, 5]: 72%
Percentage inhibition after 2 hours [2, 5]: 61%
Percentage inhibition after 3 hours [2, 5]: 57%
Percentage inhibition after 0.5 hours [2, 6]: 76%
Percentage inhibition after 1 hours [2, 6]: 77%
Percentage inhibition after 2 hours [2, 6]: 73%
Percentage inhibition after 3 hours [2, 6]: 59%
Percentage inhibition after 0.5 hours [2, 7]: 37%
Percentage inhibition after 1 hours [2, 7]: 8%
Percentage inhibition after 2 hours [2, 7]: 14%
Percentage inhibition after 3 hours [2, 7]: 8%
Percentage inhibition after 0.5 hours [2, 8]: 20%
Percentage inhibition after 1 hours [2, 8]: 10%
Percentage inhibition after 2 hours [2, 8]: 14%
Percentage inhibition after 3 hours [2, 8]: 18%
Average No. of light interruptions (motility; [9]): 145
Change % (motility; [9]): -36%
influence on locomotive stimulating effect of L-Dopa (in words) (motility; in the tested dosages, conclusion from Table 9): does not influence the locomotive stimulating effect of L-Dopa
Perished animals/treated animals (mice; 40 mg./kg., after 3 g./kg. L-Dopa): 1/20
Perished animals/treated animals (mice; 60 mg./kg., after 2 g./kg. L-Dopa): 0/20
Perished animals/treated animals (mice; 60 mg./kg., after 3 g./kg. L-Dopa): 5/20
Perished animals/treated animals (mice; 90 mg./kg., 1 hour after 1 g/kg. L-Dopa): 2/20
Perished animals/treated animals (mice; 90 mg./kg., after 2 g./kg. L-Dopa): 2/20
Perished animals/treated animals (mice; 90 mg./kg., after 3 g./kg. L-Dopa): 9/20
Perished animals/treated animals (mice; 200 mg./kg., 1 hour after 1 g/kg. L-Dopa): 14/20
Perished animals/treated animals (mice; 200 mg./kg., after 2 g./kg. L-Dopa): 17/20
Perished animals/treated animals (mice; 200 mg./kg., after 3 g./kg. L-Dopa): 15/20
Perished animals/treated animals (mice; 300 mg./kg., 1 hour after 1 g/kg. L-Dopa): 19/20
LD50 at 72 h [3]: 135 mg/kg
mortality at 72 h ([3]; 40 mg/kg, 40 mg./kg., after 3 g./kg. L-Dopa): 5%
mortality at 72 h ([3]; 60 mg/kg, 60 mg./kg., after 2 g./kg. L-Dopa): 0%
mortality at 72 h ([3]; 60 mg/kg, 60 mg./kg., after 3 g./kg. L-Dopa): 25%
mortality at 72 h ([3]; 90 mg/kg, 90 mg./kg., 1 hour after 1 g/kg. L-Dopa): 10%
mortality at 72 h ([3]; 90 mg/kg, 90 mg./kg., after 2 g./kg. L-Dopa): 10%
mortality at 72 h ([3]; 90 mg/kg, 90 mg./kg., after 3 g./kg. L-Dopa): 45%
mortality at 72 h ([3]; 200 mg/kg, 200 mg./kg., 1 hour after 1 g/kg. L-Dopa): 70%
mortality at 72 h ([3]; 200 mg/kg, 200 mg./kg., after 2 g./kg. L-Dopa): 85%
mortality at 72 h ([3]; 200 mg/kg, 200 mg./kg., after 3 g./kg. L-Dopa): 75%
mortality at 72 h ([3]; 300 mg/kg, 300 mg./kg., 1 hour after 1 g/kg. L-Dopa): 95%

N[C@@H](Cc1ccc(O)c(O)c1)C(=O)O [L-Dopa, L-3,4-dihydroxyphenylalanine]
% positive animals (hexobarbital narcosis; 520 mg./kg. oral): 0%
% positive animals (hexobarbital narcosis; 800 mg./kg. oral): 16.6%
% positive animals (hexobarbital narcosis; 1200 mg./kg. oral): 83%
Inhibition, % ([1]; L-Dopa 50 mg./kg. after 1 mg./kg. Cyproheptadine hydrochloride): 15%
Inhibition, % ([1]; L-Dopa 100 mg./kg. after 1 mg./kg. Cyproheptadine hydrochloride): 52.5%
Inhibition, % ([1]; L-Dopa 200 mg./kg. after 1 mg./kg. Cyproheptadine hydrochloride): 67.5%
Inhibition, % ([1]; L-Dopa 400 mg./kg. after 1 mg./kg. Cyproheptadine hydrochloride): 85%
Difference (percentage deviation of ED50 calculated vs. found) [1, 10]: +117%
ED50 found [1, 10]: 120 mg/kg
ED50 calculated [1, 10]: 260 mg/kg
Percentage inhibition after 0.5 hours ([2]; L-Dopa 100 mg./kg. oral): 2%
Percentage inhibition after 1 hours ([2]; L-Dopa 100 mg./kg. oral): 15%
Percentage inhibition after 2 hours ([2]; L-Dopa 100 mg./kg. oral): 18%
Percentage inhibition after 3 hours ([2]; L-Dopa 100 mg./kg. oral): 18%
Percentage inhibition after 4 hours ([2]; L-Dopa 100 mg./kg. oral): 10%
Percentage inhibition after 0.5 hours ([2]; L-Dopa 200 mg./kg. oral): 0%
Percentage inhibition after 1 hours ([2]; L-Dopa 200 mg./kg. oral): 23%
Percentage inhibition after 2 hours ([2]; L-Dopa 200 mg./kg. oral): 23%
Percentage inhibition after 3 hours ([2]; L-Dopa 200 mg./kg. oral): 3%
Percentage inhibition after 4 hours ([2]; L-Dopa 200 mg./kg. oral): 5%
Percentage inhibition after 0.5 hours ([2]; L-Dopa 400 mg./kg. oral): 27%
Percentage inhibition after 1 hours ([2]; L-Dopa 400 mg./kg. oral): 33%
Percentage inhibition after 2 hours ([2]; L-Dopa 400 mg./kg. oral): 32%
Percentage inhibition after 3 hours ([2]; L-Dopa 400 mg./kg. oral): 20%
Percentage inhibition after 4 hours ([2]; L-Dopa 400 mg./kg. oral): 10%
Average No. of light interruptions (motility; [11]): 465
Change % (motility; [11]): +105%
influence on toxicity of the other agent (in words) (mice; pre-treatments with 1 and 2 g./kg. of L-dopa): hardly influence the toxicity of Cyproheptadine hydrochloride
LD50 at 72 h [3]: 4200 mg/kg
